Laboratory results reported in the supplement of paper PMC10883282.

Assays:
Assay in all cases: relative viability vs DMSO control (72 h) (fraction); higher = more viable cells
[1] = test system: HS729
How it was run: (§1)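 Densities for seeding sarcoma cell lines into 384-well plates were set to give 80–90% confluence. After 24 h, 2.5 µl of serially diluted compound from source plates of 10 mM to 0.0002 mM went in, and plates stayed 72 h at 37 °C in 5% CO2 with 0.1% DMSO vehicle and a 5 µM positive control. Percent growth from ATPLite readings, averaged over up to triplicate wells, served as relative viability, rescaled so 1 means full and 0 means none.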

[2] = test system: KHOS-240S
How it was run: as §1

[3] = test system: A204
How it was run: as §1

[4] = test system: SYO-1
How it was run: as §1

[5] = test system: SW982
How it was run: as §1

Cc1cc(Nc2ncc(Cl)c(Nc3ccccc3S(=O)(=O)C(C)C)n2)c(OC(C)C)cc1C1CCNCC1 [Ceritinib]
relative viability
Details	[1]	[2]	[3]	[4]	[5]
0.00017 µM	0.955	0.991	1.05	1.02	0.974
0.00051 µM	1.02	0.992	1.07	1.02	0.943
0.00152 µM	1.03	1	1.08	1.06	0.946
0.00457 µM	1.01	1.01	1.07	1.07	0.92
0.01372 µM	1.03	1.01	1.07	1.05	0.959
0.04115 µM	1.02	1.02	1.06	1.01	0.9674
0.1235 µM	0.95	0.9951	1.06	0.987	0.902
0.3704 µM	0.847	0.897	1.04	0.919	0.765
1.111 µM	0.751	0.826	0.928	0.882	0.64
3.333 µM	0.626	0.439	0.334	0.51	0.311
10 µM	0.0042	0.0022	0.0012	-0.00767	0.00217

C[C@@H](Oc1cc(-c2cnn(C3CCNCC3)c2)cnc1N)c1c(Cl)ccc(F)c1Cl [Crizotinib]
relative viability
Details	[1]	[2]	[3]	[4]	[5]
0.00017 µM	0.998	1.04	1.07	0.957	1.04
0.00051 µM	1.01	1.05	1.05	0.982	1.03
0.00152 µM	0.9714	1.06	1.08	1	1.03
0.00457 µM	0.98	1.05	1.08	0.99	1.05
0.01372 µM	0.9284	1.05	1.1	0.973	1.03
0.04115 µM	0.947	1.05	1.09	0.944	1.03
0.1235 µM	0.922	1.04	1.08	0.855	0.954
0.3704 µM	0.872	0.992	0.963	0.655	0.628
1.111 µM	0.744	0.771	0.823	0.346	0.328
3.333 µM	0.58	0.566	0.577	0.13	0.168
10 µM	0.0222	0.0657	0.0123	-0.00763	0.00317

COc1cc2ncnc(Nc3ccc(F)c(Cl)c3)c2cc1NC(=O)/C=C/CN1CCCCC1 [Dacomitinib]
relative viability
Details	[1]	[2]	[3]	[4]	[5]
0.00017 µM	1.08	1.08	1.1	1.02	1.05
0.00051 µM	1.04	1.09	1.09	1.02	1.07
0.00152 µM	1.03	1.09	1.09	1.01	1.08
0.00457 µM	1.04	1.06	1.08	1.02	1.09
0.01372 µM	1.01	1.06	1.04	1	1.08
0.04115 µM	0.975	1.06	1.07	1.01	1.08
0.1235 µM	1	1.08	1.06	0.986	1.04
0.3704 µM	0.894	1.01	0.978	0.888	0.986
1.111 µM	0.844	0.936	0.751	0.824	0.606
3.333 µM	0.737	0.579	0.327	0.287	0.21
10 µM	0.318	0.0145	0.0139	-0.0103	0.0159

Cc1nc(Nc2ncc(C(=O)Nc3c(C)cccc3Cl)s2)cc(N2CCN(CCO)CC2)n1 [Dasatinib]
relative viability
Details	[1]	[2]	[3]	[4]	[5]
0.00017 µM	0.947	1.06	1.08	0.917	1.05
0.00051 µM	0.959	1.04	1.04	0.923	1.04
0.00152 µM	0.95	1.01	1.06	0.91	1.04
0.00457 µM	0.869	0.957	1.02	0.865	0.99
0.01372 µM	0.796	0.816	0.83	0.779	0.854
0.04115 µM	0.696	0.708	0.501	0.704	0.641
0.1235 µM	0.633	0.494	0.376	0.645	0.389
0.3704 µM	0.618	0.337	0.356	0.573	0.277
1.111 µM	0.609	0.279	0.356	0.528	0.259
3.333 µM	0.585	0.25	0.314	0.415	0.258
10 µM	0.581	0.198	0.281	0.188	0.218

COc1cc(OC)cc(N(CCNC(C)C)c2ccc3ncc(-c4cnn(C)c4)nc3c2)c1 [Erdafitinib]
relative viability
Details	[1]	[2]	[3]	[4]	[5]
0.00017 µM	1	1.06	1.04	0.933	1.01
0.00051 µM	0.868	1.05	1.03	0.814	0.997
0.00152 µM	0.844	1.01	0.971	0.734	0.954
0.00457 µM	0.813	0.999	0.934	0.674	0.992
0.01372 µM	0.74	0.939	0.746	0.588	0.984
0.04115 µM	0.613	0.828	0.595	0.519	0.958
0.1235 µM	0.604	0.762	0.422	0.451	0.953
0.3704 µM	0.549	0.713	0.322	0.396	0.888
1.111 µM	0.487	0.643	0.194	0.342	0.544
3.333 µM	0.423	0.521	0.127	0.248	0.225
10 µM	0.37	0.19	0.0417	-0.0109	0.0452
